Laboratory results published in ChEMBL document CHEMBL4177567, “Antibiotic adjuvants - A strategy to unlock bacterial resistance to antibiotics” (Bioorg Med Chem Lett, 2017).
pKi: −log10 of the molar value. Converted amounts (≈) assume the structure as drawn.

How the values were obtained:
[1] = test system: Acinetobacter baumannii; assay: Antibacterial activity against Acinetobacter baumannii after 20 to 22 hrs by broth microdilution method; format: functional
[2] = target: T1, Beta-lactamase 1 (Bacillus cereus, UniProt P00809); assay: Inhibition of Bacillus cereus beta-lactamase […] using CENTA as substrate up to 30 mins by Lineweaver-Burk plot analysis
T1 sequence (P00809 whole entry): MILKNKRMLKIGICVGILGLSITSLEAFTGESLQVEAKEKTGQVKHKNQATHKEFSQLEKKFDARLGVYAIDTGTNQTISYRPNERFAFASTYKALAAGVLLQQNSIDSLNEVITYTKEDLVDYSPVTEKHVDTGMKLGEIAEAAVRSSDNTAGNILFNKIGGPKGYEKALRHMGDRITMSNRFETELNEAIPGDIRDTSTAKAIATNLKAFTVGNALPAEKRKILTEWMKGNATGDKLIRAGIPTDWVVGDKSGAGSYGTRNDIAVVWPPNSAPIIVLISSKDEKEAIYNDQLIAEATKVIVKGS

## C[C@]1(COC(=O)Cc2ccc(O)c(O)c2)[C@H](C(=O)O)N2C(=O)/C(=C/c3ccccn3)[C@H]2S1(=O)=O
[1]
  MIC: 2 µg/mL (≈ 4.09 µM)

## O=C(O)c1cccc(CS(=O)(=O)C(=O)NCB(O)O)c1
[2]
  pKi: 8.89

## O=C(NCB(O)O)S(=O)(=O)c1cc(Cl)cc(-c2nnn[nH]2)c1
[2]
  pKi: 9.70

## O=C(NCB(O)O)S(=O)(=O)c1cc(-c2nnn[nH]2)cc(C(F)(F)F)c1
[2]
  pKi: 10.30

## O=C(NCB(O)O)S(=O)(=O)c1ccnc(-c2nnn[nH]2)c1
[2]
  pKi: 9.10
